Data taken from patent publication US6987114B1, “Antiviral pyrimidinedione derivatives and process for the preparation thereof” (Samjin Pharmaceutical Co., Ltd, priority 1999, dated 2006).
≈ marks a conversion by molar mass, not a printed value. Where two headings read alike, the source gives them in different places.

Tests used:
mock-infected MT-4 cells = assay: Cytotoxicity based on viability of mock-infected host cells (MTT method); assay type: cell-based; details: mock-infected MT-4 cells, MTT method, 4 or 5 days at 37° C.
Outline: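 Mock-infected MT-4 cells at 2.5×10^5 cells/ml were exposed to various concentrations of test compound, run in parallel with HIV-infected (1000 CCID50) cultures. After 4 or 5 days at 37° C., host-cell viability was read by MTT.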

HIV = assay: microbe, parasite or virus in culture; assay type: cell-based
Outline: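 MT-4 cells (2.5×10^5 cells/ml) infected with 1000 CCID50 HIV, added at once to compound dilutions, incubated 4 or 5 days at 37° C. Protection from virus-induced cytopathic effect read by MTT; cytotoxicity from MTT viability of mock-infected cells in parallel.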

[1] = Human immunodeficiency virus 1, MT4, HIV-infected MT-4 cells, MTT method, 4 or 5 days at 37° C., read-out: ED50 (the source's name)
[2] = Human immunodeficiency virus 1, MT4, read-out: ED50

EC50 (HIV; [1]) | SMILES | melting point | CD50 (mock-infected MT-4 cells) | EC50 (HIV; [2])
0.004 µg/mL (≈ 0.01 µM) | CCc1c(C(=O)c2cc(C)cc(C)c2)n(Cc2cc(F)ccc2F)c(=O)[nH]c1=O [Example 71, 1-(2,5-Difluorobenzyl)-5-ethyl-6-(3,5-dimethylbenzoyl)-2,4-pyrimidinedione] | 135 to 137 °C | >100.00 µg/mL | 
0.003 µg/mL (≈ 0.00727 µM) | Cc1cc(C)cc(C(=O)c2c(C(C)C)c(=O)[nH]c(=O)n2Cc2cc(F)ccc2F)c1 [Example 72, 1-(2,5-Difluorobenzyl)-5-isopropyl-6-(3,5-dimethylbenzoyl)-2,4-pyrimidinedione] | 205 to 207 °C | 5.26 µg/mL | 
0.016 µg/mL (≈ 0.0398 µM) | CCc1c(Sc2cc(C)cc(C)c2)n(Cc2cc(F)cc(F)c2)c(=O)[nH]c1=O [Example 73, 1-(3,5-Difluorobenzyl)-5-ethyl-6-(3,5-dimethylphenyl)thio-2,4-pyrimidinedione] | 219 to 221 °C | >100.00 µg/mL | 
0.013 µg/mL (≈ 0.0312 µM) | Cc1cc(C)cc(Sc2c(C(C)C)c(=O)[nH]c(=O)n2Cc2cc(F)cc(F)c2)c1 [Example 74, 1-(3,5-Difluorobenzyl)-5-isopropyl-6-(3,5-dimethylphenyl)thio-2,4-pyrimidinedione] | 203 to 205 °C | 10.50 µg/mL | 
> 14.3 µg/mL | CCc1c(Oc2cc(C)cc(C)c2)n(Cc2cc(F)cc(F)c2)c(=O)[nH]c1=O [Example 75, 1-(3,5-Difluorobenzyl)-5-ethyl-6-(3,5-dimethylphenoxy)-2,4-pyrimidinedione] | 178 to 180 °C | 14.30 µg/mL | 
0.022 µg/mL (≈ 0.0549 µM) | Cc1cc(C)cc(Oc2c(C(C)C)c(=O)[nH]c(=O)n2Cc2cc(F)cc(F)c2)c1 [Example 76, 1-(3,5-Difluorobenzyl)-5-isopropyl-6-(3,5-dimethylphenoxy)-2,4-pyrimidinedione] | 186 to 189 °C | 12.10 µg/mL | 
0.003 µg/mL (≈ 0.00753 µM) | CCc1c(C(=O)c2cc(C)cc(C)c2)n(Cc2cc(F)cc(F)c2)c(=O)[nH]c1=O [Example 77, 1-(3,5-Difluorobenzyl)-5-ethyl-6-(3,5-dimethylbenzoyl)-2,4-pyrimidinedione] | 165 to 167 °C | 7.0 µg/mL | 
0.0033 µg/mL (≈ 0.008 µM) | Cc1cc(C)cc(C(=O)c2c(C(C)C)c(=O)[nH]c(=O)n2Cc2cc(F)cc(F)c2)c1 [Example 78, 1-(3,5-Difluorobenzyl)-5-isopropyl-6-(3,5-dimethylbenzoyl)-2,4-pyrimidinedione] | 207 to 209 °C | 7.1 µg/mL | 
 | CCc1c(Sc2cc(C)cc(C)c2)n(Cc2cc(Cl)cc(Cl)c2)c(=O)[nH]c1=O [Example 79, 1-(3,5-Dichlorobenzyl)-5-ethyl-6-(3,5-dimethylphenyl)thio-2,4-pyrimidinedione] | 180 to 182 °C | 24.77 µg/mL | 0.052 µg/mL (≈ 0.119 µM)
 | Cc1cc(C)cc(Sc2c(C(C)C)c(=O)[nH]c(=O)n2Cc2cc(Cl)cc(Cl)c2)c1 [Example 80, 1-(3,5-Dichlorobenzyl)-5-isopropyl-6-(3,5-dimethylphenyl)thio-2,4-pyrimidinedione] | 194 to 196 °C | 46.83 µg/mL | 0.049 µg/mL (≈ 0.109 µM)
 | CCc1c(Oc2cc(C)cc(C)c2)n(Cc2cc(Cl)cc(Cl)c2)c(=O)[nH]c1=O [Example 81, 1-(3,5-Dichlorobenzyl)-5-ethyl-6-(3,5-dimethylphenoxy)-2,4-pyrimidinedione] | 194 to 196 °C | >100.00 µg/mL | 1.16 µg/mL (≈ 2.77 µM)
 | Cc1cc(C)cc(Oc2c(C(C)C)c(=O)[nH]c(=O)n2Cc2cc(Cl)cc(Cl)c2)c1 [Example 82, 1-(3,5-Dichlorobenzyl)-5-isopropyl-6-(3,5-dimethylphenoxy)-2,4-pyrimidinedione] | 234 to 236 °C | 36.15 µg/mL | 0.173 µg/mL (≈ 0.399 µM)
 | CCc1c(C(=O)c2cc(C)cc(C)c2)n(Cc2cc(Cl)cc(Cl)c2)c(=O)[nH]c1=O [Example 83, 1-(3,5-Dichlorobenzyl)-5-ethyl-6-(3,5-dimethylbenzoyl)-2,4-pyrimidinedione] | 223 to 225 °C | 3.10 µg/mL | 0.021 µg/mL (≈ 0.0487 µM)
 | Cc1cc(C)cc(C(=O)c2c(C(C)C)c(=O)[nH]c(=O)n2Cc2cc(Cl)cc(Cl)c2)c1 [Example 84, 1-(3,5-Dichlorobenzyl)-5-isopropyl-6-(3,5-dimethylbenzoyl)-2,4-pyrimidinedione] | 220 to 222 °C | 7.88 µg/mL | 0.024 µg/mL (≈ 0.0539 µM)
 | CCc1c(Sc2cc(C)cc(C)c2)n(Cc2cc(Br)cc(Br)c2)c(=O)[nH]c1=O [Example 85, 1-(3,5-Dibromobenzyl)-5-ethyl-6-(3,5-dimethylphenyl)thio-2,4-pyrimidinedione] | 214 to 215 °C | 13.17 µg/mL | 0.13 µg/mL (≈ 0.248 µM)
 | Cc1cc(C)cc(Sc2c(C(C)C)c(=O)[nH]c(=O)n2Cc2cc(Br)cc(Br)c2)c1 [Example 86, 1-(3,5-Dibromobenzyl)-5-isopropyl-6-(3,5-dimethylphenyl)thio-2,4-pyrimidinedione] | 225 to 226 °C | 2.11 µg/mL | 0.094 µg/mL (≈ 0.175 µM)
 | CCc1c(Oc2cc(C)cc(C)c2)n(Cc2cc(Br)cc(Br)c2)c(=O)[nH]c1=O [Example 87, 1-(3,5-Dibromobenzyl)-5-ethyl-6-(3,5-dimethylphenoxy)-2,4-pyrimidinedione] | 210 to 211 °C | >100.00 µg/mL | 2.05 µg/mL (≈ 4.03 µM)
 | Cc1cc(C)cc(Oc2c(C(C)C)c(=O)[nH]c(=O)n2Cc2cc(Br)cc(Br)c2)c1 [Example 88, 1-(3,5-Dibromobenzyl)-5-isopropyl-6-(3,5-dimethylphenoxy)-2,4-pyrimidinedione] | 244 to 246 °C | >100.00 µg/mL | 0.42 µg/mL (≈ 0.804 µM)
 | CCc1c(C(=O)c2cc(C)cc(C)c2)n(Cc2cc(Br)cc(Br)c2)c(=O)[nH]c1=O [Example 89, 1-(3,5-Dibromobenzyl)-5-ethyl-6-(3,5-dimethylbenzoyl)-2,4-pyrimidinedione] | 234 to 236 °C | 8.75 µg/mL | 0.09 µg/mL (≈ 0.173 µM)
 | Cc1cc(C)cc(C(=O)c2c(C(C)C)c(=O)[nH]c(=O)n2Cc2cc(Br)cc(Br)c2)c1 [Example 90, 1-(3,5-Dibromobenzyl)-5-isopropyl-6-(3,5-dimethylbenzoyl)-2,4-pyrimidinedione] | 223 to 225 °C | 8.90 µg/mL | 0.12 µg/mL (≈ 0.225 µM)
 | CCc1c(Sc2cc(C)cc(C)c2)n(Cc2c3ccccc3cc3ccccc23)c(=O)[nH]c1=O [Example 97, 1-(Anthracen-9-ylmethyl)-5-ethyl-6-(3,5-dimethylphenyl)thio-2,4-pyrimidinedione] | 219 to 220 °C | 0.59 µg/mL | > 0.59 µg/mL
 | Cc1cc(C)cc(Sc2c(C(C)C)c(=O)[nH]c(=O)n2Cc2c3ccccc3cc3ccccc23)c1 [Example 98, 1-(Anthracen-9-ylmethyl)-5-isopropyl-6-(3,5-dimethylphenyl)thio-2,4-pyrimidinedione] | 129 to 131 °C | 1.75 µg/mL | > 1.75 µg/mL
 | CCc1c(Oc2cc(C)cc(C)c2)n(Cc2c3ccccc3cc3ccccc23)c(=O)[nH]c1=O [Example 99, 1-(Anthracen-9-ylmethyl)-5-ethyl-6-(3,5-dimethyl-phenoxy)-2,4-pyrimidinedione] | 243 to 245 °C | 4.12 µg/mL | > 4.12 µg/mL
 | Cc1cc(C)cc(Oc2c(C(C)C)c(=O)[nH]c(=O)n2Cc2c3ccccc3cc3ccccc23)c1 [Example 100, 1-(Anthracen-9-ylmethyl)-5-isopropyl-6-(3,5-dimethyl-phenoxy)-2,4-pyrimidinedione] | 224 to 226 °C | 2.02 µg/mL | > 2.02 µg/mL
 | CCc1c(C(=O)c2cc(C)cc(C)c2)n(Cc2c3ccccc3cc3ccccc23)c(=O)[nH]c1=O [Example 101, 1-(Anthracen-9-ylmethyl)-5-ethyl-6-(3,5-dimethyl-benzoyl)-2,4-pyrimidinedione] | 270 to 272 °C | 0.94 µg/mL | > 0.94 µg/mL
 | Cc1cc(C)cc(C(=O)c2c(C(C)C)c(=O)[nH]c(=O)n2Cc2c3ccccc3cc3ccccc23)c1 [Example 102, 1-(Anthracen-9-ylmethyl)-5-isopropyl-6-(3,5-dimethyl-benzoyl)-2,4-pyrimidinedione] | 273 to 275 °C | 4.44 µg/mL | > 4.44 µg/mL
> 85.2 µg/mL | CCc1c(Sc2cc(C)cc(C)c2)n(Cc2ccc3c(c2)C(=O)c2ccccc2C3=O)c(=O)[nH]c1=O [Example 103, 1-(Anthraquinon-2-ylmethyl)-5-ethyl-6-(3,5-dimethyl-phenyl)thio-2,4-pyrimidinedione] | 195 to 197 °C | 85.19 µg/mL | 
> 100 µg/mL | Cc1cc(C)cc(Sc2c(C(C)C)c(=O)[nH]c(=O)n2Cc2ccc3c(c2)C(=O)c2ccccc2C3=O)c1 [Example 104, 1-(Anthraquinon-2-ylmethyl)-5-isopropyl-6-(3,5-dimethyl-phenyl)thio-2,4-pyrimidinedione] | 120 to 122 °C | >100.00 µg/mL | 
0.52 µg/mL (≈ 1.08 µM) | CCc1c(Oc2cc(C)cc(C)c2)n(Cc2ccc3c(c2)C(=O)c2ccccc2C3=O)c(=O)[nH]c1=O [Example 105, 1-(Anthraquinon-2-ylmethyl)-5-ethyl-6-(3,5-dimethylphenoxy)-2,4-pyrimidinedione] | 233 to 235 °C | 5.30 µg/mL | 
